Where a name gives a salt, the structure may show the parent alone.
Test system: Acinetobacter baumannii ATCC 17978
Experiment: Antimicrobial susceptibility testing: 90% growth inhibitory concentration (IC90) determination
Format: cell-based
Settings: 90% growth inhibitory concentration; Acinetobacter baumannii ATCC17978; Iso-Sensitest broth, OD 600 nm over 16h; read-out: ATCC17978 IC90
Procedure: Antimicrobial Susceptibility Testing:
90% Growth Inhibitory Concentration (IC90) Determination
The in vitro antimicrobial activity of the compounds was determined according to the following procedure:
The assay used a 10-points Iso-Sensitest broth medium to measure quantitatively the in vitro activity of the compounds against Acinetobacter baumannii ATCC 17978 and Acinetobacter baumannii ATCC 17961.
Stock compounds in DMSO were serially twofold diluted (e.g. range from 50 to 0.097 μM final concentration) in 384 wells microtiter plates and inoculated with 49 μl the bacterial suspension in Iso-Sensitest medium to have a final cell concentration of ˜5×10^(5) CFU/ml in a final volume/well of 50 ul/well. Microtiter plates were incubated at 35±2° C.
Bacterial cell growth was determined with the measurement of optical density at λ=600 nm each 20 minutes over a time course of 16h. Growth inhibition was calculated during the logarithmic growth of the bacterial cells with determination of the concentration inhibiting 50% (IC50) and 90% (IC90) of the growth.
Table 1 provides the 90% growth inhibitory concentrations (IC90) in micromoles per liter of the compounds of present invention obtained against the strain Acinetobacter baumannii ATCC17978 and Acinetobacter baumannii ATCC17961.

| SMILES | IC90 [nM] |
| --- | --- |
| COc1ccc(-c2cnc3c(Nc4ccc(C(=O)N(C)CCN5CCOC(CN(C)C)C5)c(C)c4)nccn23)cc1F (stereo not shown) [Example 108, N-[2-[2-[(dimethylamino)methyl]morpholin-4-yl]ethyl]-4-[[3-(3-fluoro-4-methoxy-phenyl)imidazo[1,2-a]pyrazin-8-yl]amino]-N,2-dimethyl-benzamide; formic acid] | 1200 |
| CCc1cc(Nc2nccn3c(-c4ccc(OC(F)F)c(F)c4F)cnc23)ccc1C(=O)N[C@@H](C)CN [Example 312, N-[(2S)-1-aminopropan-2-yl]-4-[[3-[4-(difluoromethoxy)-2,3-difluorophenyl]imidazo[1,2-a]pyrazin-8-yl]amino]-2-ethylbenzamide; hydrochloride] | 1200 |

Same assay, conditions: Acinetobacter baumannii, ATCC17978, 16 h, 90% growth inhibitory concentration; Acinetobacter baumannii ATCC17978; Iso-Sensitest broth, OD 600 nm over 16h; read-out: ATCC17978 IC90

| SMILES | IC90 [nM] |
| --- | --- |
| CCc1cc(Nc2nccn3c(-c4ccc(Cl)c(F)c4F)cnc23)ccc1C(=O)NCCCN [Example 229, N-(3-aminopropyl)-4-[[3-(4-chloro-2,3-difluorophenyl)imidazo[1,2-a]pyrazin-8-yl]amino]-2-ethylbenzamide;hydrochloride] | 1200 |
| CCc1cc(Nc2nccn3c(-c4ccc(OC)c(F)c4F)cnc23)ccc1C(=O)NCCNC(=O)[C@@H](N)CN [Example 400, N-[2-[[(2S)-2,3-diaminopropanoyl]amino]eth-yl]-4-[[3-(2,3-difluoro-4-methoxy-phenyl)imidazo[1,2-a]pyrazin-8-yl]amino]-2-ethyl-benzamide; formic acid] | 320 |
| COc1ccc(-c2cnc3c(Nc4ccc(C(=O)NCCNC(=O)CC[C@@H]5NC5=O)c(C)c4)nccn23)c(F)c1F [Example 337, 4-[[3-(2,3-difluoro-4-methoxyphenyl)imidazo[1,2-a]pyrazin-8-yl]amino]-2-methyl-N-[2-[3-[(2S)-3-oxoaziridin-2-yl]propanoylamino]ethyl]benz-amide] | 520 |
| CCc1cc(Nc2nccn3c(-c4ccc(OCC#CCN)c(F)c4F)cnc23)ccc1C(=O)NCCCN [Example 287, 4-[[3-[4-(4-aminobut-2-ynoxy)-2,3-difluorophenyl]imidazo[1,2-a]pyrazin-8-yl]amino]-N-(3-aminopropyl)-2-ethylbenzamide] | 2900 |
| COc1ccc(-c2cnc3c(Nc4ccc(C(=O)N(C)Cc5cccnc5)c(C)c4)nccn23)cc1F [Example 38, 4-[[3-(3-fiuoro-4-methoxy-phenyl)imidazo[1,2-a]pyrazin-8-yl]amino]-N,2-dimethyl-N-(3-pyridylmethyl) benzamide] | 190 |
| CCc1cc(Nc2nccn3c(-c4ccc(OC)cc4C(F)(F)F)cnc23)ccc1C(=O)NC [Example 537, 2-ethyl-4-[[3-[4-methoxy-2-(trifluoromethyl)phenyl]imid-azo[1,2-a]pyrazin-8-yl]amino]-N-methyl-benzamide] | 207 |
| N#CCOc1ccc(-c2cnc3c(Nc4ccc(C(=O)NCc5cc[nH]c(=O)c5)c(Cl)c4)nccn23)c(F)c1F [Example 85, 2-chloro-4-[[3-[4-(cyanomethoxy)-2,3-difluoro-phenyl]imidazo[1,2-a]pyrazin-8-yl]amino]-N-[(2-oxo-1H-pyridin-4-yl)methyl]benzamide] | 70 |
| COc1ccc(-c2cnc3c(Nc4ccc(C(=O)NCCCCCCN)c(Cl)c4)nccn23)c(F)c1F [Example 495, N-(6-aminohexyl)-2-chloro-4-((3-(2,3-difluoro-4-methoxyphenyl)imidazo[1,2-a]pyrazin-8-yl)amino)benzamide hydrochloride] | 34 |
| CCc1cc(Nc2nccn3c(-c4ccc(Oc5ncccn5)c(F)c4F)cnc23)ccc1C(=O)NCCCNC(=O)C1CCNCC1 [Example 544, N-(3-(4-((3-(2,3-difluoro-4-(pyrimidin-2-yloxy)phenyl)imidazo[1,2-a]pyrazin-8-yl)amino)-2-ethylbenzamido)propyl)piper-idine-4-carboxamide formate] | 290 |
| CNC(=O)c1ccc(Nc2nccn3c(-c4ccc(OC(F)F)cc4)cnc23)cc1Br [Example 93, 2-bromo-4-((3-(4-(difluoromethoxy)phenyl)imidazo[1,2-a]pyrazin-8-yl)amino)-N-methylbenzamide] | 200 |
| C#CCOc1ccc(-c2cnc3c(Nc4ccc(C(=O)NCCCN)c(CC)c4)nccn23)c(F)c1F [Example 394, N-(3-aminopropyl)-4-[[3-(2,3-difluoro-4-prop-2-ynoxy-phenyl)imidazo[1,2-a]pyrazin-8-yl]amino]-2-ethyl-benzamide; formic acid] | 310 |
| CCc1cc(Nc2nccn3c(-c4ccc(OC)c(F)c4F)cnc23)ccc1C(=O)NCCNC(=O)[C@@H](N)CCCNC(N)=O [Example 332, N-[2-[[(2S)-2-amino-5-(carbamoylamino)pentanoyl]amino]ethyl]-4-[[3-(2,3-difluoro-4-methoxyphenyl)imidazo[1,2-a]pyrazin-8-yl]amino]-2-ethylbenzamide] | 320 |
| CCc1cc(Nc2nccn3c(-c4ccc(OC(F)F)c(F)c4F)cnc23)ccc1C(=O)N[C@@H](C)CNC(=O)C1CCN(CC2CNC2)CC1 (racemic) [Example 553, rac-(R)-1-(azetidin-3-ylmethyl)-N-(2-(4-((3-(4-(difluoromethoxy)-2,3-difluorophenyl)imidazo[1,2-a]pyrazin-8-yl)amino)-2-ethylbenzamido)propyl)piper-idine-4-carboxamide formate] | 260 |
| COc1ccc(-c2cnc3c(Nc4ccc(C(=O)N[C@@H](C)CNC(=N)C(C)C)c(Cl)c4)nccn23)c(F)c1F [Example 500, 2-chloro-4-[[3-(2,3-difluoro-4-methoxyphenyl)imidazo[1,2-a]pyrazin-8-yl]amino]-#N!- [(2#S!)-1-(2-methylpropanimidoylamino)propan-2-yl]benzamide] | 310 |
| Cc1cc(Nc2nccn3c(-c4ccc(OC(F)F)cc4)cnc23)ccc1C(=O)N(C)CCC1CCN(CCC#N)CC1 [Example 309, N-[2-[1-(2-cyanoethyl)piperidin-4-yl]ethyl]-4-[[3-[4-(difluoromethoxy)phenyl]im-idazo[1,2-a]pyrazin-8-yl]amino]-N,2-dimethylbenzamide] | 690 |
| Cc1cc(Nc2nccn3c(-c4ccc(Cl)c(F)c4F)cnc23)ccc1C(=O)N[C@@H](C)CN [Example 258, N-[(2S)-1-aminopropan-2-yl]-4-[[3-(4-chloro-2,3-difluorophenyl)imidazo[1,2-a]pyrazin-8-yl]amino]-2-methylbenzamide;hydrochlo-ride] | 3600 |
| CCc1cc(Nc2nccn3c(-c4ccc(OC)c(F)c4F)cnc23)ccc1C(=O)NCCCNC(=O)NCCN [Example 119, N-[3-(2-aminoethylcarbamoylamino)propyl]-4-[[3-(2,3-difluoro-4-methoxy-phenyl)imidazo[1,2-a]pyrazin-8-yl]amino]-2-ethyl-benzamide] | 180 |
| Cc1cc(Nc2nccn3c(-c4ccc(OC(F)F)cc4)cnc23)ccc1C(=O)NCCN1CCNCC1 [Example 46] | 490 |
| CCc1cc(Nc2nccn3c(-c4ccc(OC(F)F)cc4)cnc23)ccc1C(=O)NC [Example 183, 4-[[3-[4-(difluoromethoxy)phenyl]im-idazo[1,2-a]pyrazin-8-yl]amino]-2-ethyl-N-methylbenzamide] | 190 |
| CCc1cc(Nc2nccn3c(-c4ccc(OC)c(F)c4F)cnc23)ccc1C(=O)NCC(O)CNC(=O)[C@@H](N)CCCN (mixture of isomers) [Example 413, rac-N-(3-((R)-2,5-diaminopentanamido)-2-hydroxypropyl)-4-((3-(2,3-difluoro-4-methoxyphenyl)imidazo[1,2-a]pyrazin-8-yl)amino)-2-ethylbenzamide dihydrochloride] | 470 |
| Cc1cc(Nc2nccn3c(-c4ccc(OC(F)F)cc4)cnc23)ccc1C(=O)N(C)CCN1CCNCC1 [Example 45, 4-[[3-[4-(difluoromethoxy)phenyl]imidazo[1,2-a]pyrazin-8-yl]amino]-N,2-dimethyl-N-(2-piperazin-1-ylethyl)benzamide] | 350 |
| CCc1cc(Nc2nccn3c(-c4ccc(OC)c(F)c4F)cnc23)ccc1C(=O)NCC(O)CN (stereo not shown) [Example 334, N-(3-amino-2-hydroxypropyl)-4-[[3-(2,3-difluoro-4-methoxyphenyl)imidazo[1,2-a]pyrazin-8-yl]amino]-2-ethylbenzamide] | 350 |
| Cc1cc(Nc2nccn3c(-c4ccc(OC(F)F)cc4)cnc23)ccc1C(=O)NCCN1C[C@@H](C)O[C@@H](C)C1 [Example 278, 4-[[3-[4-(difluoromethoxy)phenyl]im-idazo[1,2-a]pyrazin-8-yl]amino]-2-methyl-N-[2-[rac-(2R,6S)-2,6-dimethylmorpholin-4-yl]ethyl]benzamide] | 1400 |
| CNC(=O)c1ccc(Nc2nccn3c(-c4ccc(OC)c(F)c4)cnc23)cc1Cl [Example 22, 2-chloro-4-((3-(3-fluoro-4-methoxyphenyl)imidazo [1,2-a]pyrazin-8-yl)amino)-N-methylbenzamide] | 130 |
| C#CCNC(=O)c1ccc(Nc2nccn3c(-c4ccc(OC)c(F)c4F)cnc23)cc1CC [Example 541, 4-[[3-(2,3-difluoro-4-methoxyphenyl)imidazo[1,2-a]pyrazin-8-yl]amino]-2-ethyl-N-prop-2-ynylbenzamide] | 62 |
| CCc1cc(Nc2nccn3c(-c4ccc(Oc5ccccn5)c(F)c4F)cnc23)ccc1C(=O)N(C)C [Example 471, 4-[[3-[2,3-difluoro-4-(2-pyridyloxy)phenyl]imidazo [1,2-a]pyrazin-8-yl]amino]-2-ethyl-N,N-dimethyl-benzamide] | 660 |
